Test results taken from PubChem BioAssay (NCI).
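At the GI50, growth is halved. TGI marks complete inhibition of growth.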

Columns and labels:
Assay in all cases: NCI-60 cell line screen, 384-well format
NCI-H460 NSCLC = tested on: NCI-H460 NSCLC
DU-145 prostate = tested on: DU-145 prostate
MCF7 breast = tested on: MCF7 breast
UACC-62 melanoma = tested on: UACC-62 melanoma
MDA-MB-468 breast = tested on: MDA-MB-468 breast
HCC-2998 colon = tested on: HCC-2998 colon
M14 melanoma = tested on: M14 melanoma
NCI-H226 lung = tested on: NCI-H226 lung
NCI/ADR-RES ovarian = tested on: NCI/ADR-RES ovarian
OVCAR-3 ovarian = tested on: OVCAR-3 ovarian
HT29 colon = tested on: HT29 colon
A549 NSCLC = tested on: A549 NSCLC
SNB-19 CNS = tested on: SNB-19 CNS
LOX IMVI melanoma = tested on: LOX IMVI melanoma
T-47D breast = tested on: T-47D breast
SK-MEL-28 melanoma = tested on: SK-MEL-28 melanoma
HL-60(TB) leukemia = tested on: HL-60(TB) leukemia
SW-620 colon = tested on: SW-620 colon
MDA-MB-231 breast = tested on: MDA-MB-231 breast
EKVX NSCLC = tested on: EKVX NSCLC
SR leukemia = tested on: SR leukemia
BT-549 breast = tested on: BT-549 breast
HCT-15 colon = tested on: HCT-15 colon
K-562 leukemia = tested on: K-562 leukemia
KM12 colon = tested on: KM12 colon
U251 glioblastoma = tested on: U251 glioblastoma
NCI-H522 lung = tested on: NCI-H522 lung

In the case of `CC(C)c1cc(CNc2nc(Nc3cc(C4CC4)[nH]n3)cc(N3CCN(C)CC3)n2)on1`, the GI50 (NCI-H460 NSCLC) was less than 10 nM, the TGI (NCI-H460 NSCLC) was 141 nM and the GI50 (DU-145 prostate) was 120 nM. The TGI (DU-145 prostate) was 769 nM, the GI50 (MCF7 breast) was less than 10 nM and the TGI (MCF7 breast) was 10900 nM. For the same compound, the GI50 (UACC-62 melanoma) was 47.3 nM, the TGI (UACC-62 melanoma) was 1590 nM and the GI50 (MDA-MB-468 breast) was 14.1 nM. The TGI (MDA-MB-468 breast) was 42.6 nM, the GI50 (HCC-2998 colon) was 203 nM and the TGI (HCC-2998 colon) was 1980 nM. It also gave a GI50 (M14 melanoma) of 16 nM, a TGI (M14 melanoma) of 1740 nM and a GI50 (NCI-H226 lung) of 17.4 nM. For the same compound, the TGI (NCI-H226 lung) was 132 nM, the GI50 (NCI/ADR-RES ovarian) was 2670 nM and the TGI (NCI/ADR-RES ovarian) was 14100 nM. It also gave a GI50 (OVCAR-3 ovarian) of 31.6 nM, a TGI (OVCAR-3 ovarian) of 400 nM and a GI50 (HT29 colon) of 21.7 nM. It also gave a TGI (HT29 colon) of 1480 nM, a GI50 (A549 NSCLC) of 20.1 nM and a TGI (A549 NSCLC) of 6830 nM. It also gave a GI50 (SNB-19 CNS) of 136 nM, a TGI (SNB-19 CNS) of 11700 nM and a GI50 (LOX IMVI melanoma) of 29.8 nM. It also gave a TGI (LOX IMVI melanoma) of 164 nM, a GI50 (T-47D breast) of 267 nM and a TGI (T-47D breast) of 17300 nM. The GI50 (SK-MEL-28 melanoma) was 121 nM, the TGI (SK-MEL-28 melanoma) was 1390 nM and the GI50 (HL-60(TB) leukemia) was less than 10 nM. The GI50 (SW-620 colon) was 23.9 nM, the TGI (SW-620 colon) was 1190 nM and the GI50 (MDA-MB-231 breast) was 37.8 nM. For the same compound, the TGI (MDA-MB-231 breast) was 1490 nM, the GI50 (EKVX NSCLC) was 28.8 nM and the TGI (EKVX NSCLC) was 359 nM. The GI50 (SR leukemia) was less than 10 nM, the GI50 (BT-549 breast) was 34.1 nM and the TGI (BT-549 breast) was 197 nM. The GI50 (HCT-15 colon) was 246 nM, the TGI (HCT-15 colon) was 2930 nM and the GI50 (K-562 leukemia) was less than 10 nM. It also gave a TGI (K-562 leukemia) of 17.8 nM, a GI50 (KM12 colon) of less than 10 nM and a TGI (KM12 colon) of 63.8 nM. The GI50 (U251 glioblastoma) was 209 nM, the TGI (U251 glioblastoma) was 10500 nM and the GI50 (NCI-H522 lung) was 14.9 nM. It also gave a TGI (NCI-H522 lung) of 598 nM.
